Assay results published in US20080044436A1, “Method for Screening and Compositions for Treating Cancers” (priority 2004, published 2008).

Legend:
Assay type in all cases: cell-based, human
[1] = test system: proximal Sp1 response element of the p21 and p27 promoters; assay: Chromatin immunoprecipitation with anti-TReP-132 antibody in T47-D cells; details: DNA from progesterone-treated vs untreated T47-D cells
Description: FIG. 14C: Chromatin was from T47-D cells treated or not with […] progesterone. IPs were carried out with anti-TReP-132 antibodies ([…]). Controls were DNA-free PCR products (column 1, H2O), PCR products of unprecipitated genomic DNA (columns 2 and 3, input), immunoprecipitations with no antibody (columns 4 and 5, no Ab) or with irrelevant antibody (columns 6 and 7, anti-HA). The extracted DNA was amplified using the same primers as in FIG. 13C.
HTO cells incubated in the presence of Dox or T47-D cells were grown to 70% confluence in petri dishes (150 mm diameter). For HTO cells, doxycycline was removed from half of the dishes 48 hours before lysis. T47-D cells were incubated with 30 nM progesterone or with ethanol containing 0.2% BSA-RPMI for 2.5 hours before lysis. Cell lysates were then sonicated on ice, 15 times for 15 seconds at 45 second intervals. A volume of lysate corresponding to 4×10^6 cells was immunoprecipitated by using 4 μg of antibody (indicated earlier) and an anti-HA antibody as negative control. The same volume was set aside for later purification of genomic DNA. […]

[2] = test system: T47-D cells; assay: T47-D cell proliferation (cell counts) with control or TReP-132 siRNA and progesterone; details: T47-D transfected control cells, 30 nM progesterone, 4 to 6 days of treatment
Description: FIG. 3: Induction of TReP-132 by progesterone and suppression of progesterone inhibition of T47-D cell proliferation following TReP-132 knockdown by using small interfering RNA (“siRNA”). (T47-D cells were treated for the indicated times with 30 nM progesterone). Experiments were carried out in triplicate, and values represent the mean ±SD of a representative experiment.
FIG. 3B: Cells transfected with control siRNA or TReP-132 siRNA (400 ng) at 0 and 3 days were recovered at days 2, 4 or 6 and counted. (ns: not significant −*, p<0.05; **, […]; ***, p<0.001).
The sense 5′-[…]-3′ and the antisense 5′-[…]-3′ oligonucleotides were synthesized (Eurogentec) and used to generate double-stranded siRNA specific for TReP-132 (21 bp corresponding to amino acids 861-881 […] the initiation codon of the human TReP-132 gene). […] Transfection was carried out by using the GeneSilencer reagent (Gene Therapy Systems, San Diego, USA) as directed by the manufacturer. Transfection efficiency was verified by FACS analysis (Fluorescence-Activated Cell Sorting) (see below). […] Statistical analyses were carried out with the nonparametric Kruskal-Wallis test.

[3] = test system: p21 promoter; assay: Luciferase reporter assay in T47-D cells, p21 promoter; details: 30 nM progesterone for 34 hours or TReP-132 expression vector
Description: FIGS. 14A and 14B: T47-D cells were cotransfected with reporter constructs containing the p21 (FIG. 14A) or p27 (FIG. 14B) promoter. Twelve hours post-transfection, the cells were incubated with 30 nM progesterone or ethanol for 34 hours. The cell lysates were then assayed for luciferase activity. Luciferase activity of the −93p21 Luc and −549p27 Luc constructs represent level 1. Arrows indicate transcription initiation sites.
The pGL2 and pGL3 reporter constructs (100 ng) were cotransfected with the indicated amounts of expression vectors and 10 ng of the control plasmid pRL.Null. The amount of plasmid was then normalized with the empty vector pcDNA3. After 12 hours of transfection, the medium was changed and cells were incubated for an additional 10 and 34 hours, respectively. During this period, T47-D cells were cultured in the presence and absence of progesterone (30 nM). The cells were then harvested and cell lysates (20 μl) were assayed for luciferase activity (Dual Luciférase™ Reporter Assay System, Promega, Madison, Wis., USA) in a Berthold LUMAT LB9501 luminometer. The transfections were performed in triplicate and each experiment was repeated at least three times.

[4] = test system: HeLa cells; assay: Cell cycle analysis by flow cytometry after TReP-132 induction; details: HTO-GFP/TReP-132 cells, from 48 hours after doxycycline removal
From the text: HeLa Tet-off cells expressing the tTA transactivator under the control of tetracycline or doxycycline (Dox) (Clontech Laboratories, Palo Alto, Calif.) were stably transfected with the pBI-EGFP-TReP-132 vector or the pBI-EGFP control vector. In order to select stably transfected cells, the pcDNA6 plasmid (Invitrogen, Ontario, CA) containing the blasticidin resistance gene was cotransfected at a ratio of 1:50. For these transfections, the cells were first seeded in 6-well plates at an initial density of 1×10^5 cells per well, incubated for 24 hours, then transfected with ExGen 500 (MBI Fermentas, Flamborough, Ontario, CA) at a ratio of 5 μl of ExGen 500 for a total of 1 μg of plasmid such as described hereinabove in the section “Colony formation assays”. 48 hours post-transfection, cells were selected for 2 weeks with blasticidin (Sigma-Aldrich CA Ltd.). Clearly visible colonies were then were picked and subcloned on 12-well plates to enable growth. […]
To evaluate the percentage of cells in the G0/G1, S, or G2/M phase, flow cytometry profiles were determined on propidium iodide stained DNA from said cells. […] The percentage of cells in the G1, S, and G2/M phase was quantified with Multicycle AV software (Phoenix Flow System, San Diego, Calif.) (28).

Molecule: CC(=O)[C@H]1CC[C@H]2[C@@H]3CCC4=CC(=O)CC[C@]4(C)[C@H]3CC[C@]12C [progesterone, reference compound]
- TReP-132 binding to proximal Sp1 response element of p21 and p27 promoters [1]: much more pronounced
- cell proliferation [2]: inhibited cell proliferation
- p21 promoter activation [3]: activated the two promoters

B1: TReP-132: Transcriptional Regulating Protein of 132 kDa, polypeptide comprising SEQ ID NO: 2; here expressed in cells from vectors (protein)
chain: MGDQQLYKTNHVAHGSENLFYQQPPLGVHSGLNHNYGNAVTGGGMDAPQASPISPHFPQDTRDGLGLPVGSKNLGQMDTSRQGGWGSHAGPGNHVQLRGNLANSNMMWGAPAQAEPTDGYQYTYSQASEIRTQKLTSGVLHKLDSFTQVFANQNLRIQVNNMAQVLHTQSAVMDGAPDSALRQLLSQKPMEPPAPAIPSRYQQVPQQPHPGFTGGLSKPALQVGQHPTQGHLYYDYQQPLAQVPVQGGQPLQAPQMLSQHMQQMQQHQYYPPQQQQQAGQQRISMQEIQTQPQQIRPSQPQPPPQQQQPQQLQLQQRQGSMQIPQYYQPQPMMQHLQEQQQQQMHLQPPSYHRDPHQYTPEQAHTVQLIPLGSMSQYYYQEPQQPYSHPLYQQSHLSQHQQREDSQLKTYSSDRQAQAMLSSHGDLGPPDTGMGDPASSDLTRVSSTLPHRPLLSPSGIHLNNMGPQHQQLSPSAMWPQMHLPDGRAQPGSPESSGQPKGAFGEQFDAKNKLTCSICLKEFKNLPALNGHMRSHGGMRASPNLKQEEGEKVLPPQPQPPLPPPPPPPPPPQLPPEAESLTPMVMPVSVPVKLLPPKPSSQGFTNSTVAAPSARDKPASSMSDDEMPVLEIPRKHQPSVPKAEEPLKTVQEKKKFRHRPEPLFIPPPPSYNPNPAASYSGATLYQSQLRSPRVLGDHLLLDPTHELPPYTPPPMLSPVRQGSGLFSNVLISGHGPGAHPQLPLTPLTPTPRVLLCRSNSIDGSNVTVTPGPGEQTVDVEPRINIGLRFQAEIPELQDISALAQDTHKATLVWKPWPELENHDLQQRVENLLNLCCSSALPGGGTNSEFALHSLFEAKGDVMVALEMLLLRKPVRLKCHPLANYHYAGSDKWTSLERKLFNKALATYSKDFIFVQKMVKSKTVAQCVEYYYTWKKIMRLGRKHRTRLAEIIDDCVTSEEEEELEEEEEEDPEEDRKSTKEEESEVPKSPEPPPVPVLAPTEGPPLQALGQPSGSFICEMPNCGAVFSSRQALNGHARIHGGTNQVTKARGAIPSGKQKPGGTQSGYCSVKSSPSHSTTSGETDPTTIFPCKECGKVFFKIKSRNAHMKTHRQQEEQQRQKAQKAAFAAEMAATIERTTGPVGAPGLLPLDQLSLIKPIKDVDILDDDVVQQLGGVMEEAEVVDTDLLLDDQDSVLLQGDAEL
- cell cycle effect [4]: arrested cells in the G1 phase
- p21 promoter activation [3]: activated the two promoters
